Common to all, as to format: in vivo
The test system of one experiment is Myzus persicae. Description: Myzus persicae spray test (Chinese cabbage leaf discs). The conditions noted are these: after 6 days. The method, then:
Myzus persicae—Spray Test Solvent: 78 parts by weight of acetone • • 1.5 parts by weight of dimethylformamide Emulsifier: alkylaryl polyglycol ether […] To produce further test concentrations, the preparation is diluted with emulsifier-containing water. Discs of Chinese cabbage leaves (Brassica pekinensis) infested by all stages of the green peach aphid (Myzus persicae) are sprayed with an active compound preparation of the desired concentration.

Another experiment relates to Phaedon cochleariae. As to the kind of experiment: Phaedon cochleariae spray test. Particulars: after 7 days, larvae on Chinese cabbage leaf discs. The method, then: Phaedon cochleariae—Spray Test
Solvent: 78.0 parts by weight of acetone • • 1.5 parts by weight of dimethylformamide
Emulsifier: alkylaryl polyglycol ether
To produce a suitable preparation of active compound, 1 part by weight of active compound is dissolved using the stated parts by weight of solvent and made up with water containing an emulsifier concentration of 1000 ppm until the desired concentration is attained. To produce further test concentrations, the preparation is diluted with emulsifier-containing water.
After 7 days, the efficacy in % is determined. 100% means that all the beetle larvae have been killed; 0% means that no beetle larvae have been killed.

For a further experiment, the system named is Lucilia cuprina. Description: Lucilia cuprina test. Particulars: 100 ppm, after 2 days, L1 larvae. How it is done: Solvent: dimethyl sulphoxide
To produce a suitable preparation of active compound, 10 mg of active compound are mixed with 0.5 ml of dimethyl sulphoxide, and the concentrate is diluted with water to the desired concentration.
About 20 L1 larvae of the Australian sheep blowfly (Lucilia cuprina) are transferred into a test vessel containing minced horsemeat and the active compound preparation of the desired concentration.
After 2 days, the kill in % is determined. 100% means that all the larvae have been killed; 0% means that no larvae have been killed.

The subject of the next experiment is Ctenocephalides felis. Description: Ctenocephalides felis oral test. Particulars: 100 ppm in citrated cattle blood, after 2 days. From the text: Ctenocephalides felis—Oral Test Solvent: dimethyl sulphoxide […] Dilution with citrated cattle blood gives the desired concentration. About 20 unfed adult cat fleas (Ctenocephalides felis) are placed into a chamber which is closed at the top and bottom with gauze. A metal cylinder whose bottom end is closed with parafilm is placed onto the chamber. The cylinder contains the blood/active compound preparation, which can be imbibed by the fleas through the parafilm membrane.

Another experiment relates to Spodoptera frugiperda. Description: Spodoptera frugiperda spray test (maize leaf discs). Particulars: after 7 days, caterpillars on maize leaf discs. How it is done: Spodoptera frugiperda—Spray Test Solvent: 78.0 parts by weight of acetone • • 1.5 parts by weight of dimethylformamide Emulsifier: alkylaryl polyglycol ether […] To produce further test concentrations, the preparation is diluted with emulsifier-containing water. Leaf discs of maize (Zea mays) are sprayed with an active compound preparation of the desired concentration and, after drying, populated with caterpillars of the armyworm (Spodoptera frugiperda).

Take `CCS(=O)(=O)c1ccc(-n2ccc(SC)n2)nc1-c1nc2cc(C(F)(F)F)ncc2n1C` [Example 29]: the efficacy amounted to 90% in the experiment with Myzus persicae (500 g/ha) and 100% in the experiment on Phaedon cochleariae (500 g/ha).

In the case of `CCS(=O)(=O)c1ccc(-n2ccc(SC(F)(F)F)c2)nc1-c1nc2cc(C(F)(F)F)ncc2n1C` [Example 2], the efficacy in the experiment with Myzus persicae (500 g/ha) was determined as 90%; with Phaedon cochleariae (500 g/ha), 100%. The “efficacy (kill)” value in the experiment with Lucilia cuprina and with Ctenocephalides felis was 100% in each case.

In the case of `CCS(=O)(=O)c1ccc(-c2ccn[nH]2)nc1-c1nc2cc(C(F)(F)F)ncc2n1C` [Example 75], the efficacy with Phaedon cochleariae (500 g/ha) and in the experiment with Spodoptera frugiperda (500 g/ha) was 100% in each case.

As for `CCS(=O)(=O)c1ccc(-n2c(SC)nn(C)c2=O)nc1-c1nc2cc(C(F)(F)F)ncc2n1C` [Example 58], the efficacy in the experiment on Phaedon cochleariae (500 g/ha) was found to be 83%.

Turning to `CCS(=O)(=O)c1ccc(-c2cn[nH]c2)nc1-c1nc2cc(C(F)(F)F)ncc2n1C` [Example 84], the efficacy with Phaedon cochleariae (500 g/ha) stood at 83%; with Spodoptera frugiperda (500 g/ha) it was 100%.

`CCS(=O)(=O)c1ccc(-n2nnn(CC(F)(F)C(F)(F)F)c2=O)nc1-c1nc2cc(C(F)(F)F)ncc2n1C` [Example 56]: the efficacy in the experiment with Myzus persicae (500 g/ha), in the experiment with Phaedon cochleariae (500 g/ha) and with Spodoptera frugiperda (500 g/ha) was 100% throughout.

In the experiment with Myzus persicae (500 g/ha), `CCS(=O)(=O)c1ccc(-n2ccc(COC)n2)nc1-c1nc2cc(C(F)(F)F)ncc2n1C` [Example 10] had an efficacy of 90%. The “efficacy (kill)” value in the experiment with Lucilia cuprina is 100%.

For `CCS(=O)(=O)c1ccc(-n2cc(S(C)(=O)=O)cn2)nc1-c1nc2cc(C(F)(F)F)ncc2n1C` [Example 3], the efficacy with Myzus persicae (500 g/ha) is listed as 90%; with Phaedon cochleariae (500 g/ha), 100%. Further, the “efficacy (kill)” value in the experiment with Lucilia cuprina and in the experiment on Ctenocephalides felis was 100% each time.

For `CCS(=O)(=O)c1ccc(-n2ccc(CSC)n2)nc1-c1nc2cc(C(F)(F)F)ncc2n1C` [Example 47], the efficacy in the experiment with Phaedon cochleariae (500 g/ha) is given as 100%.

In the experiment with Phaedon cochleariae (500 g/ha), `CCS(=O)(=O)c1ccc(-n2cc(CSC)cn2)nc1-c1nc2cc(C(F)(F)F)ncc2n1C` [Example 38] registered an efficacy of 100%.

In the experiment with Myzus persicae (500 g/ha), `CCS(=O)(=O)c1ccc(-n2ccc(C(=O)NC)n2)nc1-c1nc2cc(C(F)(F)F)ncc2n1C` [Example 12] had an efficacy of 90%.

Regarding `CCS(=O)(=O)c1ccc(-n2nc(C)[nH]c2=O)nc1-c1nc2cc(C(F)(F)F)ncc2n1C` [Example 48], the figures for the efficacy in the experiment with Phaedon cochleariae (500 g/ha) and in the experiment on Spodoptera frugiperda (500 g/ha) were 83% and 100%, respectively.

Take `CCS(=O)(=O)c1ccc(-n2cccn2)nc1-c1nc2cc(C(F)(F)F)ncc2n1C` [Example 21]: the efficacy with Phaedon cochleariae (20 g/ha) is 83%; in the experiment with Spodoptera frugiperda (100 g/ha), 100%.

Take `CCS(=O)(=O)c1ccc(-n2nnc(C(F)(F)F)n2)nc1-c1nc2cc(C(F)(F)F)ncc2n1C` [Example 55]: the efficacy in the experiment on Myzus persicae (500 g/ha) came out at 90%; in the experiment with Phaedon cochleariae (500 g/ha), 100%; in the experiment on Spodoptera frugiperda (500 g/ha), 100%.

With `CCS(=O)(=O)c1ccc(-c2cc[nH]c2)nc1-c1nc2cc(C(F)(F)F)ncc2n1C` [Example 73], the efficacy is reported as 90% in the experiment on Myzus persicae (500 g/ha) and 100% in the experiment on Phaedon cochleariae (500 g/ha).

Take `CCS(=O)(=O)c1ccc(-c2cccnc2)nc1-c1nc2cc(C(F)(F)F)ncc2n1C` [Example 72]: the efficacy with Myzus persicae (500 g/ha) is given as 90%; in the experiment on Phaedon cochleariae (100 g/ha), 83%.

Take `CCS(=O)(=O)c1ccc(-c2cc(Cl)cs2)nc1-c1nc2cc(C(F)(F)F)ncc2n1C` [Example 77]: in the experiment with Spodoptera frugiperda (500 g/ha), the efficacy came out at 100%.

`CCS(=O)(=O)c1ccc(-c2cnn(C)c2)nc1-c1nc2cc(C(F)(F)F)ncc2n1C` [Example 83]: the efficacy in the experiment on Myzus persicae (500 g/ha) is reported as 90%; in the experiment on Phaedon cochleariae (500 g/ha) it was 100%; in the experiment on Spodoptera frugiperda (500 g/ha), 100%.

In the case of `CCS(=O)(=O)c1ccc(-n2nnn(C)c2=O)nc1-c1nc2cc(C(F)(F)F)ncc2n1C` [Example 46], the efficacy in the experiment on Phaedon cochleariae (500 g/ha) and in the experiment on Spodoptera frugiperda (500 g/ha) was 100% throughout.

As for `CCS(=O)(=O)c1ccc(-n2ccn(C)c2=O)nc1-c1nc2cc(C(F)(F)F)ncc2n1C` [Example 39], the efficacy was 90% in the experiment with Myzus persicae (20 g/ha) and 100% in the experiment on Phaedon cochleariae (500 g/ha).

Turning to `CCS(=O)(=O)c1ccc(-n2cc(CS(C)(=O)=O)cn2)nc1-c1nc2cc(C(F)(F)F)ncc2n1C` [Example 60], the figures for the “efficacy (kill)” value in the experiment on Lucilia cuprina and in the experiment with Ctenocephalides felis were 95% and 100%, respectively. Moreover, the efficacy with Phaedon cochleariae (500 g/ha) is 100%.

With `CCS(=O)(=O)c1ccc(N2CCSC2=O)nc1-c1nc2cc(C(F)(F)F)ncc2n1C` [Example 42], the figures for the efficacy in the experiment with Myzus persicae (500 g/ha) and in the experiment with Phaedon cochleariae (500 g/ha) were 90% and 100%, respectively.

Consider `CCS(=O)(=O)c1ccc(-n2nnn(CC(F)(F)F)c2=O)nc1-c1nc2cc(C(F)(F)F)ncc2n1C` [Example 52], for which the efficacy with Myzus persicae (500 g/ha) is 90%; in the experiment on Phaedon cochleariae (500 g/ha) it was 100%.

As to `CCS(=O)(=O)c1ccc(-n2ccc(C3CC3)n2)nc1-c1nc2cc(C(F)(F)F)ncc2n1C` [Example 53], the efficacy in the experiment on Myzus persicae (500 g/ha) is given as 90%; in the experiment on Phaedon cochleariae (500 g/ha), 100%; with Spodoptera frugiperda (500 g/ha), 100%. Besides, the “efficacy (kill)” value with Lucilia cuprina and with Ctenocephalides felis was 100% each time.

With `CCS(=O)(=O)c1ccc(-n2cc(F)cn2)nc1-c1nc2cc(C(F)(F)F)ncc2n1C` [Example 28], the “efficacy (kill)” value is given as 100% with Lucilia cuprina and 98% with Ctenocephalides felis. In addition, the efficacy with Phaedon cochleariae (100 g/ha) and with Spodoptera frugiperda (100 g/ha) was 100% in each case.

For the molecule `CCS(=O)(=O)c1ccc(N2CCSC2)nc1-c1nc2cc(C(F)(F)F)ncc2n1C` [Example 50], the efficacy in the experiment on Myzus persicae (500 g/ha) and in the experiment on Phaedon cochleariae (500 g/ha) was 100% in each case.

Consider `CCS(=O)(=O)c1ccc(-n2cc(SC)cn2)nc1-c1nc2cc(C(F)(F)F)ncc2n1C` [Example 16], for which the efficacy in the experiment with Myzus persicae (500 g/ha), in the experiment with Phaedon cochleariae (500 g/ha) and with Spodoptera frugiperda (500 g/ha) was 100% throughout.

For `CCS(=O)(=O)c1ccc(-n2cnc(SC)n2)nc1-c1nc2cc(C(F)(F)F)ncc2n1C` [Example 15], the efficacy in the experiment on Myzus persicae (500 g/ha) turned out to be 90%; in the experiment on Phaedon cochleariae (500 g/ha), 100%; with Spodoptera frugiperda (500 g/ha) it was 83%.

In the case of `CCS(=O)(=O)c1ccc(-n2ccc(S(C)(=O)=O)n2)nc1-c1nc2cc(C(F)(F)F)ncc2n1C` [Example 35], the efficacy in the experiment with Myzus persicae (500 g/ha) worked out at 90%; in the experiment on Phaedon cochleariae (500 g/ha), 100%. The “efficacy (kill)” value with Lucilia cuprina and in the experiment on Ctenocephalides felis was 100% throughout.

On to `CCS(=O)(=O)c1ccc(-n2cc(Cl)cn2)nc1-c1nc2cc(C(F)(F)F)ncc2n1C` [Example 6], for which the “efficacy (kill)” value with Ctenocephalides felis is 95%. In addition, the efficacy in the experiment with Spodoptera frugiperda (100 g/ha) was 100%.

Regarding `CCS(=O)(=O)c1ccc(-n2ccc(NC(C)=O)n2)nc1-c1nc2cc(C(F)(F)F)ncc2n1C` [Example 23], the efficacy with Myzus persicae (500 g/ha) came out at 90%; in the experiment with Phaedon cochleariae (500 g/ha) it was 100%. For the same molecule, in the experiment on Lucilia cuprina, the “efficacy (kill)” value turned out to be 100%.

Regarding `CCS(=O)(=O)c1ccc(-c2ccccn2)nc1-c1nc2cc(C(F)(F)F)ncc2n1C` [Example 71], the efficacy in the experiment on Phaedon cochleariae (500 g/ha) and in the experiment on Spodoptera frugiperda (500 g/ha) was 100% each time.

`CCS(=O)(=O)c1ccc(-c2sccc2Cl)nc1-c1nc2cc(C(F)(F)F)ncc2n1C` [Example 85]: the efficacy in the experiment with Spodoptera frugiperda (500 g/ha) is reported as 100%.

Turning to `CCS(=O)(=O)c1ccc(-n2cnc(C(F)(F)F)c2)nc1-c1nc2cc(C(F)(F)F)ncc2n1C` [Example 27], the efficacy in the experiment on Phaedon cochleariae (500 g/ha) is given as 100%. Moreover, in the experiment with Ctenocephalides felis, the “efficacy (kill)” value amounted to 95%.

For the molecule `CCS(=O)(=O)c1ccc(-n2cc(C(=O)NC)cn2)nc1-c1nc2cc(C(F)(F)F)ncc2n1C` [Example 4], the efficacy with Myzus persicae (500 g/ha) stood at 90%; with Phaedon cochleariae (500 g/ha), 100%. Besides, the “efficacy (kill)” value in the experiment on Lucilia cuprina and in the experiment on Ctenocephalides felis was 100% throughout.

Turning to `CCS(=O)(=O)c1ccc(-n2ccc(Cl)n2)nc1-c1nc2cc(C(F)(F)F)ncc2n1C` [Example 9], the efficacy amounted to 100% with Phaedon cochleariae (500 g/ha) and 83% in the experiment on Spodoptera frugiperda (100 g/ha).

For the origin of these results see patent US10087192B2, “2-(het)aryl-substituted fused bicyclic heterocycle derivatives as pesticides” (BAYER CROPSCIENCE AKTIENGESELLSCHSAFT, priority 2015, dated 2018).
